# Where “and” joins values, the source holds several entries; their conditions need not be identical. Identical values can stand only once. Calls of active or inactive are those of the source.
# Key:
# Aspartyl aminopeptidase = target: T1, Aspartyl aminopeptidase (Plasmodium falciparum 3D7, UniProt Q8I2J3)
# T1 sequence (Q8I2J3 whole entry): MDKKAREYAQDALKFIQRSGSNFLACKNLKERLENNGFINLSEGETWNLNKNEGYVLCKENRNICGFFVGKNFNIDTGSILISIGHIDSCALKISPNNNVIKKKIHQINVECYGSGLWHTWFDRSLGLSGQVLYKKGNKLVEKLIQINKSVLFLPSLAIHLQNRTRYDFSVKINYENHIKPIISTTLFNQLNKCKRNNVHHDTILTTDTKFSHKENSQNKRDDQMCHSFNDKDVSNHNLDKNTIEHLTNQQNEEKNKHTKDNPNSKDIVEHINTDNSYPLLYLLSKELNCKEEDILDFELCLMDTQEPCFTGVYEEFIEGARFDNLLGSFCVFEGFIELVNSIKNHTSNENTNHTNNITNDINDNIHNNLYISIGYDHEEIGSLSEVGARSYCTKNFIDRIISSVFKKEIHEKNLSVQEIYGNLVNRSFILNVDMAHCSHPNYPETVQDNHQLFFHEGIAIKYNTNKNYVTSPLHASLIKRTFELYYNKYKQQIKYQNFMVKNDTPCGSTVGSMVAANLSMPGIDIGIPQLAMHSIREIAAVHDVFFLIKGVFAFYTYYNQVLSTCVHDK
# Procathepsin L = Procathepsin L (Homo sapiens, UniProt P07711)
# [1] = A cytotoxicity screen of small molecule inhibitors of the PhoP region in Salmonella typhi identified in the primary screen. [Related pubchem assays: 1850, 1864, 1985 ]; type: functional
# Estrogen receptor = target: T2, Estrogen receptor (Homo sapiens, UniProt P03372); assay: ERα coactivator recruitment enhancers – biochemical, TR-FRET, ERα LBD, dose response (AID 737)
# T2 sequence (P03372 whole entry): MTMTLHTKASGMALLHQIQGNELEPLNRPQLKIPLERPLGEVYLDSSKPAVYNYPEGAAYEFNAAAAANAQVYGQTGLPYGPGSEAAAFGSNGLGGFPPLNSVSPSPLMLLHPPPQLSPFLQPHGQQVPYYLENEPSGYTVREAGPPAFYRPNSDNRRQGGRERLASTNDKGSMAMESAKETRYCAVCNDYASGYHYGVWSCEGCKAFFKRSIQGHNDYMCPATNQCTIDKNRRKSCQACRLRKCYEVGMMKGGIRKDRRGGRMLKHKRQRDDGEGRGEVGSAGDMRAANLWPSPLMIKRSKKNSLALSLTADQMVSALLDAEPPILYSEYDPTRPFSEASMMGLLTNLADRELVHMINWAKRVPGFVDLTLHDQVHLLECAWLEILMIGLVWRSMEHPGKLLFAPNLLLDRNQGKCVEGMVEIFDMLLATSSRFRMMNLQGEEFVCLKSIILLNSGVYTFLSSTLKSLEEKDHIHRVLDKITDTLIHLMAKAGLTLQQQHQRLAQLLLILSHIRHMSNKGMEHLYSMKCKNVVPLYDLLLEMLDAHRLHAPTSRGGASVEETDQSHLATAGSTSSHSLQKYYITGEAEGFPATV
# [2] = target: Peroxisome proliferator-activated receptor gamma/Nuclear receptor coactivator 2 (Homo sapiens, UniProt P37231); type: functional;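 further: agonist potency for raising coactivator recruitment to the receptor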
# [3] = target: Peroxisome proliferator-activated receptor gamma/Nuclear receptor coactivator 1 (Homo sapiens, UniProt P37231); type: functional;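 further: agonist potency as compounds enhance coactivator SRC-1 recruitment to PPARgamma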
# [4] = target: Peroxisome proliferator-activated receptor gamma/Nuclear receptor coactivator 3 (Homo sapiens, UniProt P37231); type: functional;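 further: agonist potency for raising coactivator recruitment to the receptor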
# [5] = target: Mothers against decapentaplegic homolog 3 (Homo sapiens, UniProt P84022); assay: blockers of Smad3 complex formation in lysate – cell lysate, secondary confirmation, chemiluminescent ELISA, HEK293 lysate, dose response (AID 1058); type: functional
# [6] = target: Luciferin 4-monooxygenase (Photinus pyralis, UniProt P08659); assay: inhibition of purified Photinus pyralis luciferase – biochemical, luminescence, dose response (AID 1891)
# [7] = Luminescence Cell-Based Dose Confirmation HTS to Identify Inhibitors of Platelet Dense Granule Release. [Related pubchem assays: 1663 (Primary HTS), 1678 (Summary of Project)]; type: functional
# [8] = A Cell Based Secondary Assay To Explore Cytotoxicity of Compounds that Sensitize Mycobacterium Tuberculosis to Beta-Lactam Antibiotics.; type: functional
# Aminopeptidase N = target: T3, Aminopeptidase N (Plasmodium falciparum FcB1/Columbia, UniProt O96935); assay: malaria alanyl aminopeptidase activity blockers – biochemical, fluorogenic H-Leu-NHMec substrate, 1536-well (AID 1445); parameters: species or system Plasmodium falciparum 3D7, 3D7
# T3 sequence (O96935 whole entry): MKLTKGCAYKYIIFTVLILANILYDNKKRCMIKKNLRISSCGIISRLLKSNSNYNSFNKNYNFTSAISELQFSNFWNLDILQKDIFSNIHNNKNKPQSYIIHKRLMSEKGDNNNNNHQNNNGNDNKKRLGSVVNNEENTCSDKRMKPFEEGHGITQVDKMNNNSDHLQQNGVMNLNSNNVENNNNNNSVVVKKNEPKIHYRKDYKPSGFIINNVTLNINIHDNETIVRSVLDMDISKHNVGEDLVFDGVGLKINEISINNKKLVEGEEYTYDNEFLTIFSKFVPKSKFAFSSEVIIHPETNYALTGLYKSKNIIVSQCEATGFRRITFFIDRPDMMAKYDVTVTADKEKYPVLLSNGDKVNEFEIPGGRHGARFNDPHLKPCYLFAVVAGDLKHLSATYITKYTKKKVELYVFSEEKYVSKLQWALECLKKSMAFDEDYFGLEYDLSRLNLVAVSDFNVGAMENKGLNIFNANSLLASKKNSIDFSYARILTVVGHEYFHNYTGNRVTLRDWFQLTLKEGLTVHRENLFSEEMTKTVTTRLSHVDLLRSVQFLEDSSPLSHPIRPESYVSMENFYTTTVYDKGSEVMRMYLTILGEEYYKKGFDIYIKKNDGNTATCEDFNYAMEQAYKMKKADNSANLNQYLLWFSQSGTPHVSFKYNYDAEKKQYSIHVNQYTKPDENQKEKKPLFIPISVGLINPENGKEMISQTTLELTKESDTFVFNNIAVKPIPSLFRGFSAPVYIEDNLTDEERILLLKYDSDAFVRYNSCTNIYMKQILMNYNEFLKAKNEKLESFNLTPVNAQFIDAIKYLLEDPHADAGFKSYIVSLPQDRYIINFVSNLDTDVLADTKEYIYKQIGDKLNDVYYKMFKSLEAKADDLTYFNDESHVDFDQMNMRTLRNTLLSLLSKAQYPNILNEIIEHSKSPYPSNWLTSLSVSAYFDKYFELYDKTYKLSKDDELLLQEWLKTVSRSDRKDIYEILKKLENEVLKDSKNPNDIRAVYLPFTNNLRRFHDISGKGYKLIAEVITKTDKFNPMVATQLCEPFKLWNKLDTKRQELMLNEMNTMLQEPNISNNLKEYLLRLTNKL
# [9] = target: T4, Induced myeloid leukemia cell differentiation protein Mcl-1 (Homo sapiens, UniProt Q07820); assay: blockers of MCL1 binding to BIM peptide – biochemical, fluorescence polarization, BIM-BH3 peptide, 1536-well, dose response (AID 2217)
# [10] = target: Bifunctional protein GlmU (Mycobacterium tuberculosis, UniProt P9WMN3); assay: Inhibitors of Mycobacterial Glucosamine-1-phosphate acetyl transferase (GlmU). Secondary screen.; parameters: species or system Mycobacterium tuberculosis H37Rv
# Bcl-2-like protein 1 = Bcl-2-like protein 1 (Homo sapiens, UniProt Q07817); assay: blockers of BCLXL peptide binding – biochemical, fluorescence polarization, 1536-well, selectivity assay for MCL1 inhibitor project, dose response (AID 2218)
# [11] = target: T4, Induced myeloid leukemia cell differentiation protein Mcl-1; type: functional
# [12] = target: DNA (cytosine-5)-methyltransferase 1 (Homo sapiens, UniProt P26358); assay: inhibition of DNA methylation by DNMT1 – biochemical, fluorescent molecular beacon, confirmation (AID 602386); type: functional
# Caspase-6 = target: T5, Caspase-6 (Homo sapiens, UniProt P55212); assay: inhibition of CASP6 peptide cleavage – biochemical, VEID-R110 fluorescence, cherry-pick, dose response (AID 720632)
# T5 sequence (P55212 whole entry): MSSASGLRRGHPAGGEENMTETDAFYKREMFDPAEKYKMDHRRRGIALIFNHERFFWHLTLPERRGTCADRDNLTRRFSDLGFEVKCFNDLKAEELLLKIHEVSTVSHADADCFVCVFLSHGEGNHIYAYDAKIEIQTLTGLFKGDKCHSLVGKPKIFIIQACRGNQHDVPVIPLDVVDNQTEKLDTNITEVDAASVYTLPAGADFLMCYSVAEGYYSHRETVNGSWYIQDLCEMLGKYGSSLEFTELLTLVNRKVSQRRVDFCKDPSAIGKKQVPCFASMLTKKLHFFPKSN
# [13] = target: T6, Histone-lysine N-methyltransferase NSD2 (Homo sapiens, UniProt O96028); type: biochemical
# T6 sequence (O96028 whole entry): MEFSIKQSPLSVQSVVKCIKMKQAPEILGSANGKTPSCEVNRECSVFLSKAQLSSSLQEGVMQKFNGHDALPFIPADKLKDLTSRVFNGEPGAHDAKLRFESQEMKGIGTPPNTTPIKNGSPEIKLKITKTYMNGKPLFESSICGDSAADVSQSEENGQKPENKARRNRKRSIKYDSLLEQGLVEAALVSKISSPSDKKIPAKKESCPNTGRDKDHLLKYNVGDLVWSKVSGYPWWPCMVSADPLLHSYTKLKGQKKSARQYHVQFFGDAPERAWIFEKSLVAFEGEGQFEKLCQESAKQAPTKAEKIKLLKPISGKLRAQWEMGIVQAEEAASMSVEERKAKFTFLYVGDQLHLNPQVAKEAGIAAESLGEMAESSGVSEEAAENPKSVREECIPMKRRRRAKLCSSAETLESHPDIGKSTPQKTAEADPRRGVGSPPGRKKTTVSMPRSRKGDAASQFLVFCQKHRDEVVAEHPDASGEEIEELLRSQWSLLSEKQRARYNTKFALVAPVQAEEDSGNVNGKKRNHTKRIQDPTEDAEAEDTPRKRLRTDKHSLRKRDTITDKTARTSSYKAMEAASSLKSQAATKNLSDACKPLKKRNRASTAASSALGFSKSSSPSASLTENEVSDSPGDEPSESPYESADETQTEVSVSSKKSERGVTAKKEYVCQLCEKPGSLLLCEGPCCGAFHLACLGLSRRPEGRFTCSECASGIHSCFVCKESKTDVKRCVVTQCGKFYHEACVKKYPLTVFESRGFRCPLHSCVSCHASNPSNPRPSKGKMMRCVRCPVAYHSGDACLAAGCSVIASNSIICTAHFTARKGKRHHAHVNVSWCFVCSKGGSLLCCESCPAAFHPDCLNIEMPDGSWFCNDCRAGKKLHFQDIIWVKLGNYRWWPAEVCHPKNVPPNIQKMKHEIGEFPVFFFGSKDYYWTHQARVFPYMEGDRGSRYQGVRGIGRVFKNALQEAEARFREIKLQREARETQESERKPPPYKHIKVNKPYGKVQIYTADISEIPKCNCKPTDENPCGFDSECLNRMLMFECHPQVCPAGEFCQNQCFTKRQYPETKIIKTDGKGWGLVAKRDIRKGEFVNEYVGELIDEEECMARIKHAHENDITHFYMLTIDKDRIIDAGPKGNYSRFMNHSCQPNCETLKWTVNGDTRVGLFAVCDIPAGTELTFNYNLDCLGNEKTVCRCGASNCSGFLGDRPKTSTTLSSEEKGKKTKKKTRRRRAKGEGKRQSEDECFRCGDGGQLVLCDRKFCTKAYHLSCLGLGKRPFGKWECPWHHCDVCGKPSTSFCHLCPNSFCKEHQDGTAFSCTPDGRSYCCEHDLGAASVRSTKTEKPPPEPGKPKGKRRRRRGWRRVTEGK
# Mothers against decapentaplegic homolog 3, sequence (P84022 whole entry): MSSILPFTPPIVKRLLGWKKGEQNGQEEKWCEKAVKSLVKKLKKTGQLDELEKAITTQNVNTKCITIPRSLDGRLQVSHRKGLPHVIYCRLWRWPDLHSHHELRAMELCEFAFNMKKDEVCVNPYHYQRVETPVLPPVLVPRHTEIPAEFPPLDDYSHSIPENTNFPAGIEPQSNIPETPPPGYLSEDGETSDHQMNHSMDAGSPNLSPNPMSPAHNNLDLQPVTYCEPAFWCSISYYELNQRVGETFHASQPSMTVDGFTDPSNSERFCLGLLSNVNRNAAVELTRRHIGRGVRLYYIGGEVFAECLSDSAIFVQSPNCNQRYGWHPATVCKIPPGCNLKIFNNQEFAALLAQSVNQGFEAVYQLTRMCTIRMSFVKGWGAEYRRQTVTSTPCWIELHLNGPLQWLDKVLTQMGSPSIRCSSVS
# T4 sequence (Q07820 whole entry): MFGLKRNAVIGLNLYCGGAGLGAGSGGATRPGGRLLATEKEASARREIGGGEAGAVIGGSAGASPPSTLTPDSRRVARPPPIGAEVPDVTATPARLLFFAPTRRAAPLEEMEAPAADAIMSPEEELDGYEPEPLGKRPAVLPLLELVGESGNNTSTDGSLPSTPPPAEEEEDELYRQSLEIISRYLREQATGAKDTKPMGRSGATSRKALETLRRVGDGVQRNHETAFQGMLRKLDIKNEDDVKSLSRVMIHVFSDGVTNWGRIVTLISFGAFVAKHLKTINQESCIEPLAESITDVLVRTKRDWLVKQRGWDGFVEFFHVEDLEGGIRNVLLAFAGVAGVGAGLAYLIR
# Procathepsin L, sequence (P07711 whole entry): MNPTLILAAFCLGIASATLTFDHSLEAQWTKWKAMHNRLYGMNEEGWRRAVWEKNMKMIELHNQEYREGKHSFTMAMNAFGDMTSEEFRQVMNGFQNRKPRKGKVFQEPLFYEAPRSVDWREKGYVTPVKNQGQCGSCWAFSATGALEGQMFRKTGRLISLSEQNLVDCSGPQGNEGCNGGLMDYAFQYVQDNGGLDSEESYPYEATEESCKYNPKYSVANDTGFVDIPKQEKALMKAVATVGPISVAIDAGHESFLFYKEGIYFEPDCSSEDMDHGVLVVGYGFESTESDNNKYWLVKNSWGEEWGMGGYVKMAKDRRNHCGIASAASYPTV
# Peroxisome proliferator-activated receptor gamma/Nuclear receptor coactivator 2, sequence (P37231 whole entry): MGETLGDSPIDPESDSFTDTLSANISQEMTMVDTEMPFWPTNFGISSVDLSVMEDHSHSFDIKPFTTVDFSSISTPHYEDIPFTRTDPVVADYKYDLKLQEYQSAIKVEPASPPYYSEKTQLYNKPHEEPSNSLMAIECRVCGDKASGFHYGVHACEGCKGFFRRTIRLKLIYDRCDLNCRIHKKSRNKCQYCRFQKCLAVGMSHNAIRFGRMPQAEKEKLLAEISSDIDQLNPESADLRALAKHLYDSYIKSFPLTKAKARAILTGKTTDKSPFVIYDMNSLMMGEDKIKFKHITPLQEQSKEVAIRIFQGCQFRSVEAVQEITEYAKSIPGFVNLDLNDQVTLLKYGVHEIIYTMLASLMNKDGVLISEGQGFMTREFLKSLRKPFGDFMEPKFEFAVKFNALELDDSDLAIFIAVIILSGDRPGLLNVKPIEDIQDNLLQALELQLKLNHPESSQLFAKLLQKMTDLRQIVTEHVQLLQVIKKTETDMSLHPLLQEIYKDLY
# Peroxisome proliferator-activated receptor gamma/Nuclear receptor coactivator 2, sequence (Q15596 whole entry, further chain): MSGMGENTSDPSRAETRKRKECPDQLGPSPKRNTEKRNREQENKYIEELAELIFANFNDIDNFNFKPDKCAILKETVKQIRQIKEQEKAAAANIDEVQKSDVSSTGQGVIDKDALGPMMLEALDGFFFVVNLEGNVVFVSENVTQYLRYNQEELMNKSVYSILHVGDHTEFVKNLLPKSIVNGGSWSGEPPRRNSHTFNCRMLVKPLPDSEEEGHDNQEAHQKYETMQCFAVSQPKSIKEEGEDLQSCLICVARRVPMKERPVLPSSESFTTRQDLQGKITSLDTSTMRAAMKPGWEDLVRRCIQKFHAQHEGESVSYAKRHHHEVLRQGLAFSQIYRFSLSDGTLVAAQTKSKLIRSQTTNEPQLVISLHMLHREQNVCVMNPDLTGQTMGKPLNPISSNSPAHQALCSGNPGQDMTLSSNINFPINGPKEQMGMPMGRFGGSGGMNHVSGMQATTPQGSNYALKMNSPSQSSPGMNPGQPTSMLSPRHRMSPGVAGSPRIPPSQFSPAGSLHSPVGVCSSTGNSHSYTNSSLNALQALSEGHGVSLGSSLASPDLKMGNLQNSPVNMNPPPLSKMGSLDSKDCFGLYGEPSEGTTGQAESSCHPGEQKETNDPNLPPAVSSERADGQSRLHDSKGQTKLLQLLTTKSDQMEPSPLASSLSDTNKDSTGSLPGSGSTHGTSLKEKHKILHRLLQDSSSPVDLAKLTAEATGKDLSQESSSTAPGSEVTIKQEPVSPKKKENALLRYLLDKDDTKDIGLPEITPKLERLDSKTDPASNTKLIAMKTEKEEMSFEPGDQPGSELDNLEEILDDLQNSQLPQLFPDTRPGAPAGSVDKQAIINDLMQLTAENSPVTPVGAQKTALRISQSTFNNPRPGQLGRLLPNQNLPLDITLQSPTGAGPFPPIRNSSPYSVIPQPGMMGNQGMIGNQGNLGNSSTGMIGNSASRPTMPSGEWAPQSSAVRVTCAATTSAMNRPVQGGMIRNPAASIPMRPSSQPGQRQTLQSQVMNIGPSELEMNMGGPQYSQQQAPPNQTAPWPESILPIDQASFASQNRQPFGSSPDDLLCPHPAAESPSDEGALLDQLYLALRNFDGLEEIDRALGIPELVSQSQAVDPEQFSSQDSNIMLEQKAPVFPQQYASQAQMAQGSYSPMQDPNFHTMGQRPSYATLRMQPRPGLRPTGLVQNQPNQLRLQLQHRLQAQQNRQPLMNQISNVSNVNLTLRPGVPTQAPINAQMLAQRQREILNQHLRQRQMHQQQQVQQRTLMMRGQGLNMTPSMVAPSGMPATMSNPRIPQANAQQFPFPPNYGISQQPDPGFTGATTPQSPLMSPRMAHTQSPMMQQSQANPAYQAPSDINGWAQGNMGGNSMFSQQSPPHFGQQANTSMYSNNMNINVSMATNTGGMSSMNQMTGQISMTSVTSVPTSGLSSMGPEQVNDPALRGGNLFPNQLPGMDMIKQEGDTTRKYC
# Peroxisome proliferator-activated receptor gamma/Nuclear receptor coactivator 1, sequence (P37231 whole entry): as the sequence (P37231 whole entry) above
# Peroxisome proliferator-activated receptor gamma/Nuclear receptor coactivator 1, sequence (Q15788 whole entry, further chain): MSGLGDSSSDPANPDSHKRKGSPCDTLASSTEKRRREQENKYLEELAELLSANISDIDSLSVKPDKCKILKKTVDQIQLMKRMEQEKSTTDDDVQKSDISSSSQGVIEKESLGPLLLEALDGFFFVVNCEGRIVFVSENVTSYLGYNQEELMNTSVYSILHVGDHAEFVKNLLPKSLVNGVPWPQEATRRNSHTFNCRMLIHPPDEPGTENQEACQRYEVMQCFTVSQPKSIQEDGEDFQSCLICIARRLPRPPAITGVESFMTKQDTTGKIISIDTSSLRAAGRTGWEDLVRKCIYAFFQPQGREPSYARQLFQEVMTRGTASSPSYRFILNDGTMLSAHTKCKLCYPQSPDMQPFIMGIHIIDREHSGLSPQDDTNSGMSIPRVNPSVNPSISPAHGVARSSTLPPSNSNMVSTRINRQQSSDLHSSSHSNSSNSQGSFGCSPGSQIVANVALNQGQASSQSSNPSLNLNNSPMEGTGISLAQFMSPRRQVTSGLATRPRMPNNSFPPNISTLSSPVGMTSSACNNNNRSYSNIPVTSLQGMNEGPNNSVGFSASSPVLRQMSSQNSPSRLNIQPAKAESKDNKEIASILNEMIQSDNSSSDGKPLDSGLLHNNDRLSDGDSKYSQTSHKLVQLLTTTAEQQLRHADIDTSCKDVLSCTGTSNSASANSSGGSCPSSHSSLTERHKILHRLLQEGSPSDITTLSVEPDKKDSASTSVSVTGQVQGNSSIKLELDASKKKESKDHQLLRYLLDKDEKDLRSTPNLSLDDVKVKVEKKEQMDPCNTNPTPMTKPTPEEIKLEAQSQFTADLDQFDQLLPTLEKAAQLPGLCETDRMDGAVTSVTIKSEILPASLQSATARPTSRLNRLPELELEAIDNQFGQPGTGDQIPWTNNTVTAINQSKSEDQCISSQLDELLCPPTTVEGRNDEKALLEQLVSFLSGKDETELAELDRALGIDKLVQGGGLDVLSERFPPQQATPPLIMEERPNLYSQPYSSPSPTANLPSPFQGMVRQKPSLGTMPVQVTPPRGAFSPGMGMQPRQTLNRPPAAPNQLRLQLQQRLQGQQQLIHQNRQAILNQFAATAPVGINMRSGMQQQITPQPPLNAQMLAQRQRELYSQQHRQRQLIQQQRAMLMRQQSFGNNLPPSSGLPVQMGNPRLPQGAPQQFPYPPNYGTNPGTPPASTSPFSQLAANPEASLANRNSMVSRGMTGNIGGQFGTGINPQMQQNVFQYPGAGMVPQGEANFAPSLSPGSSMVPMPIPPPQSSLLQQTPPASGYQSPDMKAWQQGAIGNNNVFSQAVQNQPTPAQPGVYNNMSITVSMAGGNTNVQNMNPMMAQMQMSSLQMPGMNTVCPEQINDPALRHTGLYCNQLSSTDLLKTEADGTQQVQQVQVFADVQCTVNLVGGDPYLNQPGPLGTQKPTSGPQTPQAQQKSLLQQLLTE
smiles,measurement,setting,value
Cc1c(C(=O)Nn2cnnc2)oc2ccccc12,IC50,Aspartyl aminopeptidase,0.664 µM (active)
same,IC50,Procathepsin L,> 59.6 µM (not active)
COC(=O)c1c(-c2cccc(C)c2)csc1N,EC50,[1],> 50 µM (active)
CCOC(=O)c1c(C)[nH]c(C)c1C(=O)CSc1nnc(-c2cc(OC)c(OC)c(OC)c2)o1,EC50,Estrogen receptor,12.5 µM (active)
O=C(c1cc2c(s1)-c1ccccc1S(=O)(=O)C2)N1CCN(Cc2ccccc2)CC1,EC50,[1],> 50 µM (active)
Cc1cc(C)c(C#N)c(SCc2cc3c(cc2Cl)OCO3)n1,EC50,[2],> 79.4 µM (not active)
same,EC50,[3],> 79.4 µM (not active)
same,EC50,[4],> 79.4 µM (not active)
O=C(Nc1ccc([N+](=O)[O-])cc1)Nn1cnnc1,IC50,Aspartyl aminopeptidase,1.03 µM (active)
same,IC50,Procathepsin L,> 59.6 µM (not active)
COc1ccccc1C(c1cc2c(cc1O)OCO2)N1CCOCC1 (stereo not drawn),IC50,[5],35.3 µM (not active) and < 2.5 µM (not active)
NOC(=O)C1=CC(=C(c2ccc(O)c(C(=O)ON)c2)c2ccc(O)c(C(=O)ON)c2)C=CC1=O,IC50,[5],22.5 µM (not active)
O=C(COC(=O)c1sc2ccccc2c1Cl)NC1CCCCC1,EC50,[2],> 79.4 µM (not active)
same,EC50,[3],> 79.4 µM (not active)
same,EC50,[4],> 79.4 µM (not active)
same,EC50,[6],> 112 µM (not active)
same,EC50,[7],> 112 µM (not active)
COc1cc(C(=O)NC2CCCCC2)ccc1OCc1ccc(Cl)cc1Cl,CC50,[8],24.7 µM (active)
COc1cccc(-c2cc(C(=O)Nc3cc(C)nn3-c3ccccc3)no2)c1,EC50,Estrogen receptor,12 µM (active)
CCOC(=O)c1nn(-c2ccc(F)cc2)c2nc(Nc3ccccc3)cc(=O)n12,CC50,[8],> 40 µM (active)
O=C(O)c1ccc(-n2cccc2/C=N\NC(=O)c2cc3cc(Br)ccc3o2)cc1,IC50,Aminopeptidase N,37.1 µM (active)
same,IC50,[9],12.1 µM (not active)
same,IC50,[10],66 µM (active)
same,IC50,Bcl-2-like protein 1,> 109 µM (not active)
same,IC50,[11],1.72 µM (active)
same,IC50,[12],4.36 µM (active)
same,AC50,Caspase-6,0.801 µM (active)
same,AC50,[13],7.63 µM (active)

# Source: ChEMBL document CHEMBL1201862, “PubChem BioAssay data set” (2004)
